Test results: the supplement of paper PMC5908809

What was measured:
[1] = test system: normal NK cells expanded with K562-aAPC; assay: percent inhibition of viability; higher = more inhibition; details: 72 h, IL-2 2.5 ng/mL
Experimental: (§1)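 Drug sensitivity and resistance testing on K562-aAPC-expanded normal NK cells: 5 concentrations (10-fold steps over a 10,000-fold range), 72 h at 37 °C, viability by CellTiter-Glo normalised to DMSO and benzethonium chloride controls; DSS from the fitted curve.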

[2] = test system: normal primary NK cells, pool 2 (3 donors) (IL-2 2.5 ng/mL); assay: drug sensitivity score (DSS) (DSS units); higher = more sensitive; extreme values may be limits of the assay; details: 72 h
[3] = test system: KAI3 (IL-2 2.5 ng/mL); assay: as above; details: 72 h
[4] = test system: YT (IL-2 2.5 ng/mL); assay: as above; details: 72 h
[5] = test system: KHYG-1 (IL-2 2.5 ng/mL); assay: as above; details: 72 h
[6] = test system: DERL-7 (IL-2 2.5 ng/mL); assay: as above; details: 72 h
[7] = test system: NK-92 (IL-2 2.5 ng/mL); assay: as above; details: 72 h
[8] = test system: NK-YS (IL-2 2.5 ng/mL); assay: as above; details: 72 h
[9] = test system: IMC-1 (IL-2 20 ng/mL); assay: as above; details: 72 h
[10] = test system: NKL (IL-2 2.5 ng/mL); assay: as above; details: 72 h
[11] = test system: SNK-6 (IL-2 2.5 ng/mL); assay: as above; details: 72 h
[12] = test system: normal primary NK cells, pool 3 (3 donors) (IL-2 2.5 ng/mL); assay: as above; details: 72 h
[13] = test system: normal primary NK cells, pool 1 (3 donors), resting (IL-2 0 ng/mL); assay: as above; details: 72 h
[14] = test system: normal primary NK cells, pool 1 (3 donors) (IL-2 2.5 ng/mL); assay: as above; details: 72 h
[15] = test system: normal NK cells expanded with K562-aAPC; assay: as above; details: 72 h; IL-2 2.5 ng/mL
Experimental: as §1

[16] = test system: normal primary NK cells, pool 2 (3 donors) (IL-2 2.5 ng/mL); assay: percent inhibition of viability; higher = more inhibition; details: 72 h
[17] = test system: KAI3 (IL-2 2.5 ng/mL); assay: as above; details: 72 h
[18] = test system: YT (IL-2 2.5 ng/mL); assay: as above; details: 72 h
[19] = test system: KHYG-1 (IL-2 2.5 ng/mL); assay: as above; details: 72 h
[20] = test system: DERL-7 (IL-2 2.5 ng/mL); assay: as above; details: 72 h
[21] = test system: NK-92 (IL-2 2.5 ng/mL); assay: as above; details: 72 h
[22] = test system: NK-YS (IL-2 2.5 ng/mL); assay: as above; details: 72 h
[23] = test system: IMC-1 (IL-2 20 ng/mL); assay: as above; details: 72 h
[24] = test system: NKL (IL-2 2.5 ng/mL); assay: as above; details: 72 h
[25] = test system: SNK-6 (IL-2 2.5 ng/mL); assay: as above; details: 72 h
[26] = test system: normal primary NK cells, pool 3 (3 donors) (IL-2 2.5 ng/mL); assay: as above; details: 72 h
[27] = test system: normal primary NK cells, pool 1 (3 donors), resting (IL-2 0 ng/mL); assay: as above; details: 72 h
[28] = test system: normal primary NK cells, pool 1 (3 donors) (IL-2 2.5 ng/mL); assay: as above; details: 72 h

C[C@@H]1COC(Nc2ccc3ncnc(Nc4ccc(OCc5nccs5)c(Cl)c4)c3c2)=N1 [Varlitinib] (max concentration tested 10000 nM)
percent inhibition of viability ([1]; 1 nM): -1.48%
percent inhibition of viability ([1]; 10 nM): 1.48%
percent inhibition of viability ([1]; 100 nM): 0.78%
percent inhibition of viability ([1]; 1000 nM): 6.23%
percent inhibition of viability ([1]; 10000 nM): 6.06%
drug sensitivity score [2]: 0
drug sensitivity score [3]: 0
drug sensitivity score [4]: 0.09
drug sensitivity score [5]: 1.18
drug sensitivity score [6]: 0
drug sensitivity score [7]: 2.45
drug sensitivity score [8]: 0.1
drug sensitivity score [9]: 2.92
drug sensitivity score [10]: 1.5
drug sensitivity score [11]: 8.77
drug sensitivity score [12]: 0
drug sensitivity score [13]: 0
drug sensitivity score [14]: 0
drug sensitivity score [15]: 0
percent inhibition of viability ([16]; 1 nM): -7.11%
percent inhibition of viability ([16]; 10 nM): -4.04%
percent inhibition of viability ([16]; 100 nM): 6.91%
percent inhibition of viability ([16]; 1000 nM): 1.02%
percent inhibition of viability ([16]; 10000 nM): 9.32%
percent inhibition of viability ([17]; 1 nM): 0.52%
percent inhibition of viability ([17]; 10 nM): 0.69%
percent inhibition of viability ([17]; 100 nM): -2.99%
percent inhibition of viability ([17]; 1000 nM): 5.18%
percent inhibition of viability ([17]; 10000 nM): 9.75%
percent inhibition of viability ([18]; 1 nM): 3.61%
percent inhibition of viability ([18]; 10 nM): 0.68%
percent inhibition of viability ([18]; 100 nM): 4.78%
percent inhibition of viability ([18]; 1000 nM): 8.48%
percent inhibition of viability ([18]; 10000 nM): 12.2%
percent inhibition of viability ([19]; 1 nM): 0.82%
percent inhibition of viability ([19]; 10 nM): -0.44%
percent inhibition of viability ([19]; 100 nM): 4.79%
percent inhibition of viability ([19]; 1000 nM): 10.6%
percent inhibition of viability ([19]; 10000 nM): 19.4%
percent inhibition of viability ([20]; 1 nM): 1.37%
percent inhibition of viability ([20]; 10 nM): -3.89%
percent inhibition of viability ([20]; 100 nM): -4.97%
percent inhibition of viability ([20]; 1000 nM): -5.43%
percent inhibition of viability ([20]; 10000 nM): -2.66%
percent inhibition of viability ([21]; 1 nM): -5.14%
percent inhibition of viability ([21]; 10 nM): -6.85%
percent inhibition of viability ([21]; 100 nM): 0.79%
percent inhibition of viability ([21]; 1000 nM): 4.69%
percent inhibition of viability ([21]; 10000 nM): 35.3%
percent inhibition of viability ([22]; 1 nM): 2.18%
percent inhibition of viability ([22]; 10 nM): -3.81%
percent inhibition of viability ([22]; 100 nM): 2.34%
percent inhibition of viability ([22]; 1000 nM): 4.33%
percent inhibition of viability ([22]; 10000 nM): 12.3%
percent inhibition of viability ([23]; 1 nM): -2.91%
percent inhibition of viability ([23]; 10 nM): 6.3%
percent inhibition of viability ([23]; 100 nM): 4.06%
percent inhibition of viability ([23]; 1000 nM): 14.6%
percent inhibition of viability ([23]; 10000 nM): 34%
percent inhibition of viability ([24]; 1 nM): 1.14%
percent inhibition of viability ([24]; 10 nM): 7.53%
percent inhibition of viability ([24]; 100 nM): 8.83%
percent inhibition of viability ([24]; 1000 nM): 12.6%
percent inhibition of viability ([24]; 10000 nM): 17.6%
percent inhibition of viability ([25]; 1 nM): 7.32%
percent inhibition of viability ([25]; 10 nM): 23.1%
percent inhibition of viability ([25]; 100 nM): 18.9%
percent inhibition of viability ([25]; 1000 nM): 25.6%
percent inhibition of viability ([25]; 10000 nM): 29.6%
percent inhibition of viability ([26]; 1 nM): -15.9%
percent inhibition of viability ([26]; 10 nM): -6.58%
percent inhibition of viability ([26]; 100 nM): -0.23%
percent inhibition of viability ([26]; 1000 nM): -16.5%
percent inhibition of viability ([26]; 10000 nM): 3.13%
percent inhibition of viability ([27]; 1 nM): -8.46%
percent inhibition of viability ([27]; 10 nM): -19.4%
percent inhibition of viability ([27]; 100 nM): -14.8%
percent inhibition of viability ([27]; 1000 nM): -23.5%
percent inhibition of viability ([27]; 10000 nM): -3.47%
percent inhibition of viability ([28]; 1 nM): -1.41%
percent inhibition of viability ([28]; 10 nM): -12.3%
percent inhibition of viability ([28]; 100 nM): 1.76%
percent inhibition of viability ([28]; 1000 nM): -7.07%
percent inhibition of viability ([28]; 10000 nM): 4.85%

COc1ccc(-c2ccc3c(N4CCOC[C@@H]4C)nc(N4CCOC[C@@H]4C)nc3n2)cc1CO [AZD8055] (max concentration tested 10000 nM)
percent inhibition of viability ([1]; 1 nM): 6.73%
percent inhibition of viability ([1]; 10 nM): 19.9%
percent inhibition of viability ([1]; 100 nM): 29.3%
percent inhibition of viability ([1]; 1000 nM): 42.1%
percent inhibition of viability ([1]; 10000 nM): 41.3%
drug sensitivity score [2]: 4.67
drug sensitivity score [3]: 20.6
drug sensitivity score [4]: 17.3
drug sensitivity score [5]: 18.6
drug sensitivity score [6]: 27.5
drug sensitivity score [7]: 20.7
drug sensitivity score [8]: 18.9
drug sensitivity score [9]: 0.56
drug sensitivity score [10]: 25.5
drug sensitivity score [11]: 19.1
drug sensitivity score [12]: 2.13
drug sensitivity score [13]: 0
drug sensitivity score [14]: 8.04
drug sensitivity score [15]: 12.8
percent inhibition of viability ([16]; 1 nM): -5.63%
percent inhibition of viability ([16]; 10 nM): 5.36%
percent inhibition of viability ([16]; 100 nM): 15.5%
percent inhibition of viability ([16]; 1000 nM): 20%
percent inhibition of viability ([16]; 10000 nM): 22.5%
percent inhibition of viability ([17]; 1 nM): 16.4%
percent inhibition of viability ([17]; 10 nM): 25.7%
percent inhibition of viability ([17]; 100 nM): 50.1%
percent inhibition of viability ([17]; 1000 nM): 58.8%
percent inhibition of viability ([17]; 10000 nM): 60.9%
percent inhibition of viability ([18]; 1 nM): 7.4%
percent inhibition of viability ([18]; 10 nM): 12.9%
percent inhibition of viability ([18]; 100 nM): 43.8%
percent inhibition of viability ([18]; 1000 nM): 56.6%
percent inhibition of viability ([18]; 10000 nM): 68.3%
percent inhibition of viability ([19]; 1 nM): 3.41%
percent inhibition of viability ([19]; 10 nM): 7.07%
percent inhibition of viability ([19]; 100 nM): 30.4%
percent inhibition of viability ([19]; 1000 nM): 82.5%
percent inhibition of viability ([19]; 10000 nM): 82.6%
percent inhibition of viability ([20]; 1 nM): 0.54%
percent inhibition of viability ([20]; 10 nM): 34.1%
percent inhibition of viability ([20]; 100 nM): 65.8%
percent inhibition of viability ([20]; 1000 nM): 86.8%
percent inhibition of viability ([20]; 10000 nM): 88.3%
percent inhibition of viability ([21]; 1 nM): 8.5%
percent inhibition of viability ([21]; 10 nM): 22.1%
percent inhibition of viability ([21]; 100 nM): 48.4%
percent inhibition of viability ([21]; 1000 nM): 64.4%
percent inhibition of viability ([21]; 10000 nM): 97.2%
percent inhibition of viability ([22]; 1 nM): 4.19%
percent inhibition of viability ([22]; 10 nM): 9.89%
percent inhibition of viability ([22]; 100 nM): 45.4%
percent inhibition of viability ([22]; 1000 nM): 66.8%
percent inhibition of viability ([22]; 10000 nM): 78.2%
percent inhibition of viability ([23]; 1 nM): 1.04%
percent inhibition of viability ([23]; 10 nM): -9.13%
percent inhibition of viability ([23]; 100 nM): -36.4%
percent inhibition of viability ([23]; 1000 nM): 1.86%
percent inhibition of viability ([23]; 10000 nM): 16.9%
percent inhibition of viability ([24]; 1 nM): 9.88%
percent inhibition of viability ([24]; 10 nM): 42.8%
percent inhibition of viability ([24]; 100 nM): 61.2%
percent inhibition of viability ([24]; 1000 nM): 63.9%
percent inhibition of viability ([24]; 10000 nM): 61.8%
percent inhibition of viability ([25]; 1 nM): -1.89%
percent inhibition of viability ([25]; 10 nM): 12.4%
percent inhibition of viability ([25]; 100 nM): 53.8%
percent inhibition of viability ([25]; 1000 nM): 54.5%
percent inhibition of viability ([25]; 10000 nM): 54.5%
percent inhibition of viability ([26]; 1 nM): -5.43%
percent inhibition of viability ([26]; 10 nM): 8.78%
percent inhibition of viability ([26]; 100 nM): 9.67%
percent inhibition of viability ([26]; 1000 nM): 14.1%
percent inhibition of viability ([26]; 10000 nM): 16.9%
percent inhibition of viability ([27]; 1 nM): -13.5%
percent inhibition of viability ([27]; 10 nM): -7.65%
percent inhibition of viability ([27]; 100 nM): -3.85%
percent inhibition of viability ([27]; 1000 nM): 9.37%
percent inhibition of viability ([27]; 10000 nM): -4.87%
percent inhibition of viability ([28]; 1 nM): -5.65%
percent inhibition of viability ([28]; 10 nM): 6.16%
percent inhibition of viability ([28]; 100 nM): 8.42%
percent inhibition of viability ([28]; 1000 nM): 38.2%
percent inhibition of viability ([28]; 10000 nM): 29.2%
